Legend:
[1] = tested on: weed plants such as Digitaria sanguinalis, Echinochloa crus-galli, Setaria faberi, Setaria viridis, Sorghum halepense, Abutilon theophrasti, Amaranthum …; experiment: Pre-emergence effect on weeds (greenhouse pot test); type: in vivo, monocotyledonous and dicotyledonous weed plants; conditions: application rate of 1 kg or less of active substance per hectare; scored visually after 3 to 4 weeks by comparison with untreated controls
In short: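 Weed seeds or rhizome pieces sown in sandy loam and covered; compounds, formulated as wettable powders or emulsion concentrates, sprayed onto the soil surface as aqueous suspensions/emulsions at 600 to 800 l water/ha in various dosages. Greenhouse growth; visual scoring of plant damage/emergence versus untreated controls after 3 to 4 weeks.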

[2] = tested on: harmful plants such as Digitaria sanguinalis, Echinochloa crus-galli, Setaria faberi, Setaria viridis, Sorghum halepense, Abutilon theophrasti, Amaranthum …; experiment: Post-emergence effect on weeds (greenhouse pot test); type: in vivo, monocotyledonous and dicotyledonous weeds; conditions: application rate of 1 kg and less of active substance per hectare; treated at three-leaf stage; scored visually after about 3 to 4 weeks by comparison with untreated controls
In short: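 Greenhouse-grown weeds in sandy loam, sprayed at three-leaf stage (three weeks after sowing) with wettable powder or emulsion concentrate formulations at various dosages in 600 to 800 l water/ha. Effect scored visually against untreated controls after about 3 to 4 weeks.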

| melting point [°C] | SMILES | herbicidal activity pre-emergence [1] | herbicidal activity post-emergence [2] |
| --- | --- | --- | --- |
| 210 | CC(C)c1nc(N)nc(NC2CCN(c3ccccc3)C2=O)n1 (centres unmarked) [Example A20] | very good herbicidal activity | very good herbicidal activity |
| 77 | CC(C)(F)c1nc(N)nc(OC2CCN(c3ccccc3)C2=O)n1 (centres unmarked) [Example A55] | very good herbicidal activity | very good herbicidal activity |
|  | Cc1cc(C)cc(N2CCC(N(C)c3nc(N)nc(C(C)(C)F)n3)C2)c1 (centres unmarked) [Example E50] | very good herbicidal activity | very good herbicidal activity |
|  | CN(c1nc(N)nc(C(C)(C)F)n1)C1CCN(c2cccc(Cl)c2)C1 (centres unmarked) [Example E55] | very good herbicidal activity | very good herbicidal activity |
|  | CC(F)c1nc(N)nc(N(C)C2CCN(c3cccc(C(F)(F)F)c3)C2)n1 (centres unmarked) [Example E57] | very good herbicidal activity | very good herbicidal activity |
|  | CC(F)c1nc(N)nc(N(C)C2CCN(c3cccc(OC(F)(F)F)c3)C2)n1 (centres unmarked) [Example E58] | very good herbicidal activity | very good herbicidal activity |
|  | Cc1cc(C)cc(N2CCC(N(C)c3nc(N)nc(C(C)F)n3)C2)c1 (centres unmarked) [Example E59] | very good herbicidal activity | very good herbicidal activity |
|  | CC(F)c1nc(N)nc(N(C)C2CCN(c3cccc(Cl)c3)C2)n1 (centres unmarked) [Example E64] | very good herbicidal activity | very good herbicidal activity |
|  | CC(C)c1nc(N)nc(N(C)C2CCN(c3cccc(C(F)(F)F)c3)C2)n1 (centres unmarked) [Example E66] | very good herbicidal activity | very good herbicidal activity |
|  | CC(C)c1nc(N)nc(N(C)C2CCN(c3cccc(OC(F)(F)F)c3)C2)n1 (centres unmarked) [Example E67] | very good herbicidal activity | very good herbicidal activity |
|  | Cc1cc(C)cc(N2CCC(N(C)c3nc(N)nc(C(C)C)n3)C2)c1 (centres unmarked) [Example E68] | very good herbicidal activity | very good herbicidal activity |
|  | CC(C)c1nc(N)nc(N(C)C2CCN(c3cccc(Cl)c3)C2)n1 (centres unmarked) [Example E73] | very good herbicidal activity | very good herbicidal activity |
|  | CC(F)c1nc(N)nc(OC2CCN(C(C)(C)c3cccc(Cl)c3)C2=O)n1 (centres unmarked) [Example F1] | very good herbicidal activity | very good herbicidal activity |
|  | CC(C)c1nc(N)nc(OC2CCN(C(C)(C)c3cccc(Cl)c3)C2=O)n1 (centres unmarked) [Example F2] | very good herbicidal activity | very good herbicidal activity |
|  | CC(C)(F)c1nc(N)nc(OC2CCN(C(C)(C)c3cccc(Cl)c3)C2=O)n1 (centres unmarked) [Example F3] | very good herbicidal activity | very good herbicidal activity |

From patent publication US20030171218A1, “Substituted 3-heteroaryl(amino- or oxy)pyrrolidin-2-ones, their preparation and use as herbicides or plant growth regulators” (priority 2001, published 2003)
